# Laboratory results published in the supplement of paper PMC10307832.
# What was measured:
# Experiment in all cases: relative viability (nuclei count vs DMSO), 5 days (fraction); higher = more cells survive
# [1] = test system: NCI-H1755
# Method in brief: (§1)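 Five library-drug doses in √10 steps were combined with a fixed anchor-drug dose, or a single drug was given alone, by pin tool to lung cancer cell lines in 1536-well plates the day after seeding. Nuclei were stained and counted after 5 days. Relative viability is the nuclei count in treated wells over that in vehicle wells, taken as the median of duplicate plates.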
# [2] = test system: UMC-11
# Method in brief: as §1
# [3] = test system: EKVX
# Method in brief: as §1
# [4] = test system: HCC-44
# Method in brief: as §1
# [5] = test system: IA-LM
# Method in brief: as §1
# [6] = test system: NCI-H1395
# Method in brief: as §1
# [7] = test system: A549
# Method in brief: as §1
# [8] = test system: HCC-15
# Method in brief: as §1
# [9] = test system: EBC-1
# Method in brief: as §1
# [10] = test system: NCI-H1703
# Method in brief: as §1
# [11] = test system: NCI-H1299
# Method in brief: as §1
# [12] = test system: Calu-6
# Method in brief: as §1
# [13] = test system: LCLC-103H
# Method in brief: as §1
smiles,measurement,setting,value
CCN(CC)CCCCNc1ncc2cc(-c3cc(OC)cc(OC)c3)c(NC(=O)NC(C)(C)C)nc2n1 + CC1(C)CCC(c2ccc(Cl)cc2)=C(CN2CCN(c3ccc(C(=O)NS(=O)(=O)c4ccc(N[C@H](CCN5CCOCC5)CSc5ccccc5)c(S(=O)(=O)C(F)(F)F)c4)cc3)CC2)C1 [Navitoclax] (partner 0.5 µM),relative viability,[1]; first compound 0.01 µM,1.14
same,relative viability,[1]; first compound 0.03162 µM,1.08
same,relative viability,[1]; first compound 0.1 µM,1.07
same,relative viability,[1]; first compound 0.3162 µM,1.09
same,relative viability,[1]; first compound 1 µM,0.987
same,relative viability,[2]; first compound 0.01 µM,0.303
same,relative viability,[2]; first compound 0.03162 µM,0.293
same,relative viability,[2]; first compound 0.1 µM,0.318
same,relative viability,[2]; first compound 0.3162 µM,0.318
same,relative viability,[2]; first compound 1 µM,0.308
same,relative viability,[3]; first compound 0.01 µM,0.946
same,relative viability,[3]; first compound 0.03162 µM,0.851
same,relative viability,[3]; first compound 0.1 µM,1.01
same,relative viability,[3]; first compound 0.3162 µM,1.04
same,relative viability,[3]; first compound 1 µM,0.968
same,relative viability,[4]; first compound 0.01 µM,1.01
same,relative viability,[4]; first compound 0.03162 µM,0.997
same,relative viability,[4]; first compound 0.1 µM,1.02
same,relative viability,[4]; first compound 0.3162 µM,1.1
same,relative viability,[4]; first compound 1 µM,0.937
same,relative viability,[5]; first compound 0.01 µM,0.746
same,relative viability,[5]; first compound 0.03162 µM,0.882
same,relative viability,[5]; first compound 0.1 µM,0.969
same,relative viability,[5]; first compound 0.3162 µM,0.73
same,relative viability,[5]; first compound 1 µM,0.866
same,relative viability,[6]; first compound 0.03162 µM,1.1
same,relative viability,[6]; first compound 0.1 µM,1.09
same,relative viability,[6]; first compound 0.3162 µM,1.17
same,relative viability,[6]; first compound 1 µM,0.751
same,relative viability,[7]; first compound 0.01 µM,1.16
same,relative viability,[7]; first compound 0.03162 µM,1.24
same,relative viability,[7]; first compound 0.1 µM,1.53
same,relative viability,[7]; first compound 0.3162 µM,1.23
same,relative viability,[7]; first compound 1 µM,1.07
same,relative viability,[8]; first compound 0.01 µM,0.748
same,relative viability,[8]; first compound 0.03162 µM,0.724
same,relative viability,[8]; first compound 0.1 µM,0.859
same,relative viability,[8]; first compound 0.3162 µM,0.784
same,relative viability,[8]; first compound 1 µM,0.7
same,relative viability,[9]; first compound 0.01 µM,0.339
same,relative viability,[9]; first compound 0.03162 µM,0.469
same,relative viability,[9]; first compound 0.1 µM,0.442
same,relative viability,[9]; first compound 0.3162 µM,0.357
same,relative viability,[9]; first compound 1 µM,0.37
same,relative viability,[10]; first compound 0.01 µM,1.07
same,relative viability,[10]; first compound 0.1 µM,1.04
same,relative viability,[10]; first compound 0.3162 µM,1.32
same,relative viability,[10]; first compound 1 µM,0.925
same,relative viability,[11]; first compound 0.01 µM,1.08
same,relative viability,[11]; first compound 0.03162 µM,1.01
same,relative viability,[11]; first compound 0.1 µM,1.08
same,relative viability,[11]; first compound 0.3162 µM,1.09
same,relative viability,[11]; first compound 1 µM,1.01
same,relative viability,[12]; first compound 0.01 µM,0.729
same,relative viability,[12]; first compound 0.03162 µM,0.946
same,relative viability,[12]; first compound 0.1 µM,1.03
same,relative viability,[12]; first compound 0.3162 µM,1.01
same,relative viability,[12]; first compound 1 µM,0.748
O=c1cc(N2CCOCC2)oc2c(-c3cccc4c3sc3ccccc34)cccc12 + CC(C)C[C@H](NC(=O)[C@H](Cc1ccccc1)NC(=O)c1cnccn1)B(O)O [Bortezomib] (partner 0.002 µM),relative viability,[1]; first compound 0.01 µM,1.02
same,relative viability,[1]; first compound 0.03162 µM,0.873
same,relative viability,[1]; first compound 0.1 µM,0.959
same,relative viability,[1]; first compound 0.3162 µM,1.03
same,relative viability,[1]; first compound 1 µM,0.977
same,relative viability,[2]; first compound 0.01 µM,0.63
same,relative viability,[2]; first compound 0.03162 µM,0.505
same,relative viability,[2]; first compound 0.1 µM,0.72
same,relative viability,[2]; first compound 0.3162 µM,0.736
same,relative viability,[2]; first compound 1 µM,0.728
same,relative viability,[3]; first compound 0.01 µM,1.03
same,relative viability,[3]; first compound 0.03162 µM,1.09
same,relative viability,[3]; first compound 0.1 µM,1.02
same,relative viability,[3]; first compound 0.3162 µM,1.11
same,relative viability,[3]; first compound 1 µM,1.05
same,relative viability,[13]; first compound 0.01 µM,1.16
same,relative viability,[13]; first compound 0.03162 µM,1.04
same,relative viability,[13]; first compound 0.1 µM,0.954
same,relative viability,[13]; first compound 0.3162 µM,1.04
same,relative viability,[13]; first compound 1 µM,0.877
same,relative viability,[4]; first compound 0.01 µM,0.889
same,relative viability,[4]; first compound 0.03162 µM,0.875
same,relative viability,[4]; first compound 0.1 µM,0.906
same,relative viability,[4]; first compound 0.3162 µM,0.881
same,relative viability,[4]; first compound 1 µM,0.896
same,relative viability,[5]; first compound 0.01 µM,0.837
same,relative viability,[5]; first compound 0.03162 µM,0.904
same,relative viability,[5]; first compound 0.1 µM,0.784
same,relative viability,[5]; first compound 0.3162 µM,0.896
same,relative viability,[5]; first compound 1 µM,0.74
same,relative viability,[8]; first compound 0.01 µM,0.948
same,relative viability,[8]; first compound 0.03162 µM,1.06
same,relative viability,[8]; first compound 0.1 µM,1.12
same,relative viability,[8]; first compound 0.3162 µM,0.948
same,relative viability,[8]; first compound 1 µM,1.04
same,relative viability,[9]; first compound 0.01 µM,0.569
same,relative viability,[9]; first compound 0.03162 µM,0.538
same,relative viability,[9]; first compound 0.1 µM,0.505
same,relative viability,[9]; first compound 0.3162 µM,0.555
same,relative viability,[9]; first compound 1 µM,0.49
same,relative viability,[10]; first compound 0.01 µM,0.333
same,relative viability,[10]; first compound 0.03162 µM,0.274
same,relative viability,[10]; first compound 0.1 µM,0.356
same,relative viability,[10]; first compound 0.3162 µM,0.403
same,relative viability,[10]; first compound 1 µM,0.296
same,relative viability,[11]; first compound 0.01 µM,1.04
same,relative viability,[11]; first compound 0.03162 µM,1.01
same,relative viability,[11]; first compound 0.1 µM,0.984
same,relative viability,[11]; first compound 0.3162 µM,1.03
same,relative viability,[11]; first compound 1 µM,1.08
same,relative viability,[12]; first compound 0.01 µM,1.04
same,relative viability,[12]; first compound 0.03162 µM,1.05
same,relative viability,[12]; first compound 0.1 µM,1.01
same,relative viability,[12]; first compound 0.3162 µM,0.969
same,relative viability,[12]; first compound 1 µM,1.03
